Experimental data as given in patent publication EP4752149A1, “OXYGEN-CONTAINING FUSED TRICYCLIC DERIVATIVE, AND PREPARATION METHOD THEREFOR AND USE THEREOF” (Tuojie Biotech (Shanghai) Co., Ltd., priority 2023, dated 2025).

What was measured:
[1] = system: Human prostate cancer cells (22RV1); assay: Inhibitory activity against human prostate cancer cells (22RV1), CTG cell viability; assay type: cell-based; settings: Homo sapiens, 120 h, 5 days with compound
Procedure: (§1) Human prostate cancer cells (22RV1) were cultured using an RPMI 1640 culture medium containing 10% FBS in a cell incubator (37 °C, 5% CO2). On day one, the cells were plated in a 384-well plate at a cell concentration of 500 cells/well and cultured overnight in an incubator. On day two, the cells were treated with compounds. The highest compound concentration was 10 µM and was diluted 3-fold to obtain 9 concentrations, and the final concentration of DMSO was 0.2%. After the cells were cultured in the incubator for another 5 days, the cell viability was tested using a CTG Cell Viability Detection Reagent; the testing method was consistent with the method provided by the kit. Data were processed using XLFit, and IC50 was calculated. [formula] X: the logarithm of the compound concentration; Y: % inhibition. Table 12. The IC50 (nM) of a compound of the present disclosure against 22RV1

[2] = system: Human breast cancer cells (SUM-149PT); assay: Inhibitory activity against human breast cancer cells (SUM-149PT), CTG cell viability; assay type: cell-based; settings: Homo sapiens, SUM149PT, 120 h, 5 days with compound
Procedure: as §1, with “breast” for “prostate”, “(SUM-149PT)” for “(22RV1)”, “a DMEM” for “an RPMI 1640”, “800” for “500”, “14.” for “12.”, “SUM-149PT” for “22RV1”

[3] = system: Ovarian cancer cells (OVCAR3); assay: Inhibitory activity against ovarian cancer cells (OVCAR3), CTG cell viability; assay type: cell-based; settings: Homo sapiens, OVCAR-3, 168 h, 7 days with compound
Procedure: Ovarian cancer cells (OVCAR3) were cultured using an RPMI 1640 culture medium containing 10% FBS in a cell incubator (37 °C, 5% CO2). On day one, the cells were plated in a 384-well plate at a cell concentration of 800 cells/well and cultured overnight in an incubator. On day two, the cells were treated with compounds. The highest compound concentration was 10 µM and was diluted 3-fold to obtain 9 concentrations, and the final concentration of DMSO was 0.1%. After the cells were cultured in the incubator for another 7 days, the cell viability was tested using a CTG Cell Viability Detection Reagent (MCE); the testing method was consistent with the method provided by the kit. Data were processed using GraphPad Prism 8, and IC50 was calculated. [formula] X: the logarithm of the compound concentration; Y: inhibition%. Table 2. The IC50 (nM) of compounds of the present disclosure against OVCAR3

[4] = system: Human non-small cell lung cancer cells (A549); assay: Inhibitory activity against human non-small cell lung cancer cells (A549), CTG cell viability; assay type: cell-based; settings: Homo sapiens, 120 h, 5 days with compound
Procedure: as §1, with “non-small cell lung” for “prostate”, “(A549)” for “(22RV1)”, “F12K” for “RPMI 1640”, “300” for “500”, “10.” for “12.”, “A549” for “22RV1”

CDK4/CycD1 = molecular target: T1, CDK4/CycD1 (Homo sapiens, UniProt P11802); assay: Activity against cyclin-dependent kinase CDK4/CycD1 (Caliper EZ Reader mobility shift); assay type: biochemical; settings: 1 h at room temperature; highest concentration 1 µM
T1 construct: purchased Invitrogen PR8064A
T1 sequence (P11802 whole entry): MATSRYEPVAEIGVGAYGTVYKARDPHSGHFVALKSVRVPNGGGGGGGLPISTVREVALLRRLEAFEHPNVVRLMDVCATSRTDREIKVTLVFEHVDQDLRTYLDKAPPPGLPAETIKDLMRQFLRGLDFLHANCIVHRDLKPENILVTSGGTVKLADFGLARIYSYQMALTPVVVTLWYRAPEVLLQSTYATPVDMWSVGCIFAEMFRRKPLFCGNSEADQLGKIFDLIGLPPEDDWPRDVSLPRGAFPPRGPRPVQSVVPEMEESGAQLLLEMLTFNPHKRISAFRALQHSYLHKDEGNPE
T1 sequence (P24385 whole entry partner): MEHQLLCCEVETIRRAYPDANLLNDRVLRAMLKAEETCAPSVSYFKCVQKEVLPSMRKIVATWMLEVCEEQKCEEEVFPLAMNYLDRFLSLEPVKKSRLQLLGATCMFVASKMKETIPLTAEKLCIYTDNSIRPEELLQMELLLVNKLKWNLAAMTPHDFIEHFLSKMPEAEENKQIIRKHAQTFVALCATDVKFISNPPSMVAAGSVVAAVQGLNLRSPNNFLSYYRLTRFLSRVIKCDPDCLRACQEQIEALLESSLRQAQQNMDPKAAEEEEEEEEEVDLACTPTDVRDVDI
Procedure: The test compounds (the highest concentration was 1 µM) were added using Echo 650 and serially diluted 3-fold to obtain a total of 9 concentration points. The assay plate was sealed and centrifuged at 1000 g for 1 min. 2.5× enzymes were prepared in a 1× kinase buffer (50 mM HEPES, pH 7.5, 0.0015% Brij-35, […]), and the 2.5× enzymes (10 µL) were added to the 384-well assay plate. The plate was centrifuged at 1000 g for 30 s and left to stand at room temperature for 10 min. 2.5× substrate and ATP mixtures were prepared in the 1× kinase buffer, and the 2.5× substrate and ATP mixtures (10 µL) were added to start reactions. The assay plate was centrifuged at 1000 g for 30 s, sealed, and incubated at room temperature for 1 h. 25 µL of a stop solution reagent (100 mM HEPES, pH 7.5, 0.015% Brij-35, 0.2% Coating Reagent #3, 50 mM EDTA) was added.
Conversion rate data were read on a CaliperEZ Reader. The conversion rate data were copied from the CaliperEZ Reader. The conversion rates were converted to inhibition rate data. Inhibition% = (max−conversion)/(max−min) × 100, [formula] where "min" is the reading of a control sample well to which no enzyme was added for reaction; "max" is the reading of a control well to which DMSO was added.
IC50 values were obtained by fitting using XLFit excel add-in version 5.4.0.8. Y = Bottom + (Top−Bottom)/(1+((IC50/X))^(∧)HillSlope). [formula] Table 6. […]

MCF-7/Palbo-R = assay: Inhibitory activity against CDK4/6 inhibitor-resistant human breast cancer cells (MCF-7 palbociclib-resistant cell line), cell viability; assay type: cell-based; settings: Homo sapiens, MCF7, 120 h, 5 days with compound, CellTiter-Glo cell viability
Procedure: MCF-7/Palbo-R cell source: MCF7 cells (Nanjing Cobioer Biosciences Co., Ltd.) were treated with 1 µM palbociclib for a long time, and drug resistance was induced.
The palbociclib-resistant breast cancer cell line MCF-7/Palbo-R was cultured using a DMEM culture medium containing 10% FBS in a cell incubator (37 °C, 5% CO2). On day one, the cells were plated in a 384-well plate at a cell concentration of 800 cells/well and cultured overnight in an incubator. On day two, the cells were treated with compounds. The highest compound concentration was 10 µM and was diluted 3-fold to obtain 9 concentrations, and the final concentration of DMSO was 0.2%. After the cells were cultured in the incubator for another 5 days, the cell viability was tested using a CellTiter-Glo luminescent cell viability assay kit; the testing method was consistent with the method provided by the kit. Data were processed using XLfit, and IC50 was calculated.
The inhibition rates (IR) of the test compounds were calculated using the following formula: IR (%) = (1 - (RLU compound - RLU blank control) / (RLU vehicle control-RLU blank control)) × 100%. Table 16. The IC50 (nM) of a compound of the present disclosure against MCF-7/Palbo-R

- IC50 [1]: 80.3 nM
- IC50 [2]: 256 nM
- IC50 [3]: 672 nM
- IC50 [4]: 236 nM
- IC50 (CDK4/CycD1): 3.8 nM
- IC50 (MCF-7/Palbo-R): 180 nM
SMILES: C[C@H]1COc2c(-c3nc(Nc4ccc(N5CCOCC5=O)cc4F)ncc3Cl)cc(F)c3nc(C(C)(C)O)n1c23 [Example 1, (S)-4-(4-((5-Chloro-4-(8-fluoro-2-(2-hydroxypropan-2-yl)-3-methyl-3,4-dihydro-5-oxa-1,2a-diazaacenaphthylen-6-yl)pyrimidin-2-yl)amino)-3-fluorophenyl)morpholin-3-one]
